The text below walks through data of patent publication US7267953B2, “Method for identification of modulators of pre-adipocyte differentiation” (AstraZeneca AB, priority 2001, dated 2007).

Assay [1] has as its system mouse embryonic fibroblasts (MEF). Put plainly: Adipocyte differentiation of retrovirus infected mouse embryonic fibroblasts (MEF), Oil Red O staining. It is filed as cell-based. Particulars: Oil Red O at day 13 post-induction. The source says:
The fibroblastic 3T3-L1 preadipocyte cells have the capability to differentiate to adipocytes when given the proper hormonal stimulation, usually a combination of dexamethasone, insulin and isobutylmethylxanthine, as opposed to NIH/3T3 where overexpression of adipocyte differentiating factors is necessary to get adipocyte development. Untransformed mouse embryonic fibroblasts (MEF) can also be forced to adipocyte differentiation using the same adipogenic factors; the efficiency is however much lower than with 3T3-L1. […] Stable clones were selected 2-3 days using puromycin (2 μg/ml) and surviving cells were grown to confluence. 3T3-L1 cells differentiate to adipocytes at high rate when all adipogenic inducers are present and this could make it difficult discriminate the effect of an additional adipogenic signal. The cells were therefore induced with dexamethasone (1 μM) alone for two days or in combination with darglitazone (0.5 μM) throughout the experiment to get a low differentiation rate. […] At day 13 post-induction adipate differentiation was measured by Oil Red O staining. […]

Assay [2] has as its system NIH/3T3 mouse fibroblasts. Kind of assay: Adipocyte differentiation of retrovirus infected NIH/3T3 fibroblasts, Oil Red O staining. It is filed as cell-based. As to conditions: Oil Red O after 10 days. The source says: A classical way of studying the adipocyte differentiating potential of a gene is to overexpress it in either uncommitted NIH/3T3 fibroblasts or in 3T3-L1 preadipocytes using retroviral transfer. The adipocyte differentiating potential can then be assayed by microscopic examination and by staining with lipophilic dyes such as Oil Red O. O/E-1 was thus expressed in mouse NIH/3T3 fibroblasts, 3T3-L1 preadipocytes and mouse embryonic fibroblasts to investigate its adipocyte differentiating potential. cDNAs encoding mouse O/E-1, human O/E-1 and mouse PPARγ2 were cloned in the pBabepuro retrovirus vector. These retrovirus vectors as well as the empty vector were transiently transfected into Phoenix high efficiency packaging cells. Retroviruses containing supernatants were used to infect NIH/3T3 mouse fibroblasts. After puromycin (2 μg/ml) selection for two days, cells were allowed to grow to confluence after which adipogenic inducers were added (DIM, see above), after 10 days cells were stained with the lipophilic dye Oil Red O. As expected PPARγ induced some differentiation of NIH/3T3 mouse fibroblasts into lipid-containing cells that resembled cultured adipocytes in the presence of adipogenic inducers (FIG. 3). […] The ability of human O/E-1 to induce adipocyte differentiation of NIH/3T3 was also tested and found to be similar as that of mouse O/E-1 (Data not shown).

Another assay deals with 3T3-L1 preadipocytes. Kind of assay: Adipocyte differentiation of retrovirus infected 3T3-L1 preadipocytes, Oil Red O staining. It is filed as cell-based, mouse. Particulars: vector or O/E-1 infected 3T3-L1; 0.5 μM in combination with dexamethasone (1 μM); stained at day 3, 4 and 7. The source says:
The fibroblastic 3T3-L1 preadipocyte cells have the capability to differentiate to adipocytes when given the proper hormonal stimulation, usually a combination of dexamethasone, insulin and isobutylmethylxanthine, as opposed to NIH/3T3 where overexpression of adipocyte differentiating factors is necessary to get adipocyte development. Untransformed mouse embryonic fibroblasts (MEF) can also be forced to adipocyte differentiation using the same adipogenic factors; the efficiency is however much lower than with 3T3-L1. […] Stable clones were selected 2-3 days using puromycin (2 μg/ml) and surviving cells were grown to confluence. 3T3-L1 cells differentiate to adipocytes at high rate when all adipogenic inducers are present and this could make it difficult discriminate the effect of an additional adipogenic signal. The cells were therefore induced with dexamethasone (1 μM) alone for two days or in combination with darglitazone (0.5 μM) throughout the experiment to get a low differentiation rate. MEF on the other hand develop into adipocytes quite inefficiently and were thus induced with the more powerful adipogenic combination of dexamethasone (1 μM), insulin (5 μg/ml) isobutylmethylxanthine (0.115 mg/ml) and darglitazone (0.5 μM) for two days, insulin and darglitazone for two days and darglitazone alone all through the experiment. […]

As to `Cc1oc(-c2ccccc2)nc1CCC(=O)c1ccc(CC2SC(=O)NC2=O)cc1` (stereo not drawn) [darglitazone], in assay [1] (human O/E-1 infected MEF), the adipocyte differentiation result is “even further enhanced differentiation”. In addition, the “number of cells that developed into adipocytes” value in assay [1] (vector infected MEF, compared with vehicle) is recorded as “increased the number of cells that developed into adipocytes”. Further, the “differentiation into lipid-containing adipocyte-like cells” value in assay [2] (PPARγ2 infected NIH/3T3, 0.5 μM present throughout with adipogenic inducers (DIM)) is reported as “dramatic increase”. The development to adipocytes result in assay [2] (mouse O/E-1 infected NIH/3T3, adipogenic inducers (DIM), 0.5 μM) is “greatly enhanced”. For the same compound, in assay [2] (vector infected NIH/3T3, adipogenic inducers (DIM), 0.5 μM), the differentiation into adipocytes entry is listed as “No differentiation was observed”. The “overall rate of adipocyte differentiation” value with 3T3-L1 preadipocytes is “overall rate of differentiation was enhanced”.
